# From ChEMBL document CHEMBL5038598, “Design and Synthesis of Pyrrolo[2,3-d]pyrimidine-Derived Leucine-Rich Repeat Kinase 2 (LRRK2) Inhibitors Using a Checkpoint Kinase 1 (CHK1)-Derived Crystallographic Surrogate” (J Med Chem, 2021)
# pIC50, pKd: −log10 of the molar value.
# Legend:
# [1] = biological target: T1, Adenosine receptor A2b (Homo sapiens) (UniProt P29275); experiment: Binding affinity to human Adenosine receptor A2b at 1 uM by radioligand binding assay relative to control
# T1 sequence (whole entry): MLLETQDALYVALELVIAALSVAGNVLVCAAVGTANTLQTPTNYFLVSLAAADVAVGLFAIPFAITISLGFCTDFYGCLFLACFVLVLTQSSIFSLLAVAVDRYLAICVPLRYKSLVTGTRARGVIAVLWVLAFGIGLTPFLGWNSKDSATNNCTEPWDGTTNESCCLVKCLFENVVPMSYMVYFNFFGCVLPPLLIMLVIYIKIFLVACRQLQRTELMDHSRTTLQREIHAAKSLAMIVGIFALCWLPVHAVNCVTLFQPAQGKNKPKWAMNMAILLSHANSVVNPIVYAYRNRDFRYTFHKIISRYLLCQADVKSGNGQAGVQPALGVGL
# [2] = Drug uptake in P-gp la-deficient C57BL/6 mouse brain at 5 mg/kg, sc and measured after 0.5 hrs; assay type: ADME, organism-based; conditions: read-out: Drug uptake
# [3] = biological target: T2, Leucine-rich repeat serine/threonine-protein kinase 2 (Homo sapiens, UniProt Q5S007, G2019S); experiment: Inhibition of LRRK2-pSer935 in LRRK2 G2019S mutant expressing human HEK293 cells and measured after 48 hrs by ICW assay; assay type: cell-based
# [4] = Ratio of drug level in Mdr1A deficient C57BL/6 mouse brain to plasma at 5 mg/kg, sc and measured after 0.5 hrs; assay type: ADME, organism-based
# [5] = Ratio of unbound drug level in Md1a deficient C57BL/6 mouse brain to plasma at 5 mg/kg, sc and measured after 0.5 hrs; assay type: ADME, organism-based
# [6] = biological target: Receptor-type tyrosine-protein kinase FLT3 (Homo sapiens, UniProt P36888, D835V/ITD); experiment: Binding affinity to human FLT3 ITD, D835V (V592/Y969) mutant expressed in mammalian system assessed as dissociation constant measured at 1 uM by DiscoveRx KINOMEscan assay
# [7] = Half life in steady state in Beagle dog plasma at 1 mg/kg, IV […]; assay type: ADME, organism-based, Canis lupus familiaris
# BCRP (human) = experiment: Efflux ratio of apparent permeability in MDCK cells expressing human BCRP; assay type: ADME, cell-based, Canis lupus familiaris; conditions: dog
# [8] = biological target: T3, Leucine-rich repeat serine/threonine-protein kinase 2 (Homo sapiens, UniProt Q5S007); experiment: Inhibition of recombinant human LRRK2 WT using fluorescein-labeled LRRKtide as substrate in presence of ATP preincubated for 50 mins followed by anti-phospho-LRRKtide antibody addition and measured after 30 mins by TR-FRET based Lanthascreen kinase activity assay
# [9] = biological target: T3, Leucine-rich repeat serine/threonine-protein kinase 2; experiment: Inhibition of LRRK2 WT expressed in human PBMCs measured by KiNativ profiling analysis
# [10] = Ratio of unbound drug level in C57BL/6 WT mouse brain to plasma at 5 mg/kg, sc and measured after 0.5 hrs; assay type: ADME, organism-based; conditions: C57BL/6, mouse
# [11] = Binding affinity to human PIP5K2C (M1/A421) WT expressed in mammalian system assessed as dissociation constant measured at 1 uM by DiscoveRx KINOMEscan assay
# [12] = biological target: T2, Leucine-rich repeat serine/threonine-protein kinase 2; experiment: Binding affinity to human LRRK2 (H970/E2527) G2019S mutant expressed in mammalian system assessed as dissociation constant measured at 1 uM by DiscoveRx KINOMEscan assay
# [13] = Drug uptake in mdrla-deficient C57BL/6 mouse plasma at 5 mg/kg, sc and measured after 0.5 hrs; assay type: ADME, organism-based
# [14] = Ratio of drug level in C57BL/6 WT mouse brain to plasma at 5 mg/kg, sc and measured after 1 hrs; assay type: ADME, organism-based; conditions: C57BL/6, mouse
# [15] = Drug uptake in Mdr1a deficient C57BL/6 mouse plasma at 5 mg/kg, sc and measured after 1 hrs; assay type: ADME, organism-based
# [16] = Ratio of drug level in Mdr1A deficient C57BL/6 mouse brain to plasma at 5 mg/kg, sc and measured after 1 hrs; assay type: ADME, organism-based
# [17] = Ratio of unbound drug level in C57BL/6 WT mouse brain to plasma measured at 5 mg/kg, sc and measured after 1 hrs; assay type: ADME, organism-based; conditions: C57BL/6, mouse
# [18] = Drug uptake in C57BL/6 WT mouse plasma at 5 mg/kg, sc and measured after 0.5 hrs; assay type: ADME, organism-based; conditions: C57BL/6, mouse
# [19] = Drug uptake in C57BL/6 WT mouse plasma at 5 mg/kg, sc and measured after 1 hrs; assay type: ADME, organism-based; conditions: C57BL/6, mouse
# [20] = Drug uptake in C57BL/6 WT mouse brain at 5 mg/kg, sc and measured after 0.5 hrs; assay type: ADME, organism-based; conditions: C57BL/6, mouse, read-out: Drug uptake
# [21] = Drug uptake in C57BL/6 WT mouse brain at 5 mg/kg, sc and measured after 1 hrs; assay type: ADME, organism-based; conditions: C57BL/6, mouse, read-out: Drug uptake
# [22] = Drug uptake in Mdr1a deficient C57BL/6 mouse brain at 5 mg/kg, sc and measured after 1 hrs; assay type: ADME, organism-based; conditions: read-out: Drug uptake
# [23] = Ratio of unbound drug level in Md1a deficient C57BL/6 mouse brain to plasma at 5 mg/kg, sc and measured after 1 hrs; assay type: ADME, organism-based
# T3 sequence (Q5S007 whole entry): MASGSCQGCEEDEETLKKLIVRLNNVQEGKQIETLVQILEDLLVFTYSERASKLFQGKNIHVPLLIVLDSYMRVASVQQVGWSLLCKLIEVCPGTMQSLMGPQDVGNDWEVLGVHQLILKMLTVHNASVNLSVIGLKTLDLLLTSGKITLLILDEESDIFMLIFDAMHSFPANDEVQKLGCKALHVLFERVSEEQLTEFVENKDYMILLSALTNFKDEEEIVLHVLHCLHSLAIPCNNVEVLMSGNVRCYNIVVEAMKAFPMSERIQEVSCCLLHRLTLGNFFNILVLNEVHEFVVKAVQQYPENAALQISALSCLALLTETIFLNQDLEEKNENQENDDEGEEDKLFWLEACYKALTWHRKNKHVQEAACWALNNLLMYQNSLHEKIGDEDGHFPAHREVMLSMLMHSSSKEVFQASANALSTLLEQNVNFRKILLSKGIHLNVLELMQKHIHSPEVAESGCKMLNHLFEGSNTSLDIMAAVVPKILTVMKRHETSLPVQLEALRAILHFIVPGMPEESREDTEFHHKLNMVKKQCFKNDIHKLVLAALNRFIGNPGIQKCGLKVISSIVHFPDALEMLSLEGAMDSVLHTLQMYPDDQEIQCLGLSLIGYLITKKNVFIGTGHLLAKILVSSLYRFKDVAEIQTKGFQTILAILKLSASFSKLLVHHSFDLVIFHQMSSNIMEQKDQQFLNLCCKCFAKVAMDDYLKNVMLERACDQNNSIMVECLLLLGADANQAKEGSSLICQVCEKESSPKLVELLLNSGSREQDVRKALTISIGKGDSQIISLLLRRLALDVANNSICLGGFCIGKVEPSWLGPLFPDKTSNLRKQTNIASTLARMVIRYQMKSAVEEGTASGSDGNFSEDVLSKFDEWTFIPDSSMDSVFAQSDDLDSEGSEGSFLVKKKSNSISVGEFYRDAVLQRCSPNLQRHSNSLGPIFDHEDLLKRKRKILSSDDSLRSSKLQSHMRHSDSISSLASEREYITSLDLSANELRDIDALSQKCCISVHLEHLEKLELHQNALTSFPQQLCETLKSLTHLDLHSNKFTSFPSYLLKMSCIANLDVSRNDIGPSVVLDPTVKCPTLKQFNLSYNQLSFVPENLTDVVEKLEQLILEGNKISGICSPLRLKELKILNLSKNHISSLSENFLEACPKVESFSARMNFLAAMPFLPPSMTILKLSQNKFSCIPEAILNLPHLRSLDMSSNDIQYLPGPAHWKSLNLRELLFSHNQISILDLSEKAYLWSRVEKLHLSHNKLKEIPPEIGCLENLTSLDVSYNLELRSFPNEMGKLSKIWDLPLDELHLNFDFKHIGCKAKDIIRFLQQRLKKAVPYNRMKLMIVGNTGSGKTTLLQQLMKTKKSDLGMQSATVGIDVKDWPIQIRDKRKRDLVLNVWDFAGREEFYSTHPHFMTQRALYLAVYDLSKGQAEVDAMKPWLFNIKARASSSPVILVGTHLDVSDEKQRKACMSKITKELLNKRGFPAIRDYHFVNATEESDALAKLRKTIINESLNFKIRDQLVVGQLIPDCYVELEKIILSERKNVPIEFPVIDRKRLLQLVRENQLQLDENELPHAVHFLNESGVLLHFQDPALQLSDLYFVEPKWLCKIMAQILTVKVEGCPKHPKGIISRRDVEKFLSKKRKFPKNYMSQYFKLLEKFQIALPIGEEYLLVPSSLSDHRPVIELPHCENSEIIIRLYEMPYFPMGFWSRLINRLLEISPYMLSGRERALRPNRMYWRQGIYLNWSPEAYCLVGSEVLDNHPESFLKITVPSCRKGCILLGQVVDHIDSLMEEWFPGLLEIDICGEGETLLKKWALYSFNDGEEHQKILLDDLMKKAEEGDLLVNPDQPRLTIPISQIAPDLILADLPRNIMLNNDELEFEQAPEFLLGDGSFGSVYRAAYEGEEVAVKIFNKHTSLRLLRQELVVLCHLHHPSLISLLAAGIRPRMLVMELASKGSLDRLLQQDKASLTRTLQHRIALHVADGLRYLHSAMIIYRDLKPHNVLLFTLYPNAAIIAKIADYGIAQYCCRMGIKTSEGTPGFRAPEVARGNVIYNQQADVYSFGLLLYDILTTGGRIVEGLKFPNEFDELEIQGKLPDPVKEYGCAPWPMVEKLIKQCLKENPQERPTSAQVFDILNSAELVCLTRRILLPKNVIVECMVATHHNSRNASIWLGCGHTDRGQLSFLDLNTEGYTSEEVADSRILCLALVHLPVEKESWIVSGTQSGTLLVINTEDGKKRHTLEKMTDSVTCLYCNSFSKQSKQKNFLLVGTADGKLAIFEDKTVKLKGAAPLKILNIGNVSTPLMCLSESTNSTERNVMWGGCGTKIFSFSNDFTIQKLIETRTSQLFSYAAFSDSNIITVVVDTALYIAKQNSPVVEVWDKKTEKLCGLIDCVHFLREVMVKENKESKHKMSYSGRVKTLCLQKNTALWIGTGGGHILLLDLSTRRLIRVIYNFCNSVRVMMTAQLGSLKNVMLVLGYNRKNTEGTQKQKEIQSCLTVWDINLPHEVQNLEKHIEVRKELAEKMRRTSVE
# T2 sequence (Q5S007 whole entry G2019S): as the sequence (Q5S007 whole entry) above, with G2019S counted along it
SMILES,inhibition [1] [%],pIC50 [3],pKd [6],half-life [7] [min],efflux ratio (BCRP (human)),pIC50 [8],pIC50 [9],Kp uu at 0.5 h [10],pKd [11],pKd [12],other results
Cc1c(Nc2nc(N)c3c(C#N)c(N4CCC[C@H]4C)n(C)c3n2)cnn1[C@@H]1CCOC1,18,7.10,6.33,30,34,7.70,7.17,0.02,6.72,8.41,concentration at 0.5 h [2]: 256 ng/g; Kp at 0.5 h [4]: 0.31; Kp uu at 0.5 h [5]: 0.11; concentration at 0.5 h [13]: 2140 ng/mL
Cc1c(Nc2nc(N)c3c(C#N)c(N4CCC[C@H]4C)n(C)c3n2)cnn1[C@H]1CCOC1,26,7.29,7.17,36,22,7.64,7.07,0.02,6.37,8.26,Kp at 1 h [14]: 0.04; concentration at 1 h [15]: 100 ng/mL; Kp at 1 h [16]: 0.15; Kp uu at 1 h [17]: 0.014; concentration at 0.5 h [18]: 1610 ng/mL; concentration at 1 h [19]: 440 ng/mL; concentration at 0.5 h [20]: 73 ng/g; concentration at 1 h [21]: 17 ng/g; concentration at 1 h [22]: 675 ng/g; Kp uu at 1 h [23]: 0.056
